# Results from patent EP4603546A1, “SOLID DISPERSION CONTAINING SUBSTANCE TO BE DISPERSED, PHARMACEUTICAL COMPOSITION CONTAINING SAME, AND PRODUCTION METHODS THEREFOR” (CHUGAI SEIYAKU KABUSHIKI KAISHA, priority 2022, dated 2024).
# Numbered stars: 1 amine (or outer) side, 2 acyl side, 3 side chain; on linkers, the order of the positions; unused ones are H or OH. Bridge positions count the residues as written; N and C are the ends. Square brackets hold non-standard residues; d marks the D form. Peptide text beside a SMILES is read from it. * marks the point of attachment. hPhe(3,5-F2-4-CF3) = N[C@@H](CCc1cc(F)c(C(F)(F)F)c(F)c1)C(=O)O; hPhe(3-Cl-4-CF3) = N[C@@H](CCc1ccc(C(F)(F)F)c(Cl)c1)C(=O)O; NMePhe(4-CF3) = CN[C@@H](Cc1ccc(C(F)(F)F)cc1)C(=O)O; NEtPhe(4-Me) = CCN[C@@H](Cc1ccc(C)cc1)C(=O)O; NMePhe(4-Me) = CN[C@@H](Cc1ccc(C)cc1)C(=O)O; NMedβ3hAla = C[C@H](CC(=O)[*:2])N(C)[*:1]; NMeGly(cPent) = CN[C@H](C(=O)O)C1CCCC1; Pro(4,4-F2) = O=C(O)[C@@H]1CC(F)(F)CN1; NMeGly(cBu) = CN[C@H](C(=O)O)C1CCC1; NMeCha = CN[C@@H](CC1CCCCC1)C(=O)O; Hyp = O=C(O)[C@@H]1C[C@@H](O)CN1; NMeChg = CN[C@H](C(=O)O)C1CCCCC1; NMeI = CC[C@H](C)[C@H](NC)C(=O)O; NMeD = CN[C@@H](CC(=O)O)C(=O)O; NMeL = CN[C@@H](CC(C)C)C(=O)O; NMeA = CN[C@@H](C)C(=O)O; Pyrrolidide = C1CCN(*)C1; Ac5c = NC1(C(=O)O)CCCC1; Aze = O=C(O)[C@@H]1CCN1; Sar = CNCC(=O)O
# Assay: physchem
# Settings: pH 6.5, aqueous buffer
# Method: Solubility (unit: mg/mL) was calculated from the measured compound concentration. The HPLC conditions are as follows. Detector: ultraviolet absorption photometer (measurement wavelength: 230 nm) Column: stainless steel tube of 2.1 mm inner diameter, 5 cm long filled with 1.7 µm ethylene cross-linked hybrid particles for liquid chromatography Column temperature: constant temperature near 70°C Mobile phase A: water/trifluoroacetic acid mixed solution (2000/1) Mobile phase B: acetonitrile/trifluoroacetic acid mixed solution (2000/1) Liquid delivery of mobile phase: concentration gradient control by changing the mixing ratio of mobile phase A and mobile phase B as shown in Table 8 below [Table 8]
row,solubility thermodynamic,Compound
1,1 µg/mL,CCO[C@@H]1C[C@H]2C(=O)NC3(CCCC3)C(=O)N(C)[C@@H]([C@@H](C)CC)C(=O)N(C)[C@H](C)CC(=O)N(C)[C@@H](CC(C)C)C(=O)N[C@@H]([C@@H](C)CC)C(=O)N(C)[C@@H](C)C(=O)N3CC[C@H]3C(=O)N(C)[C@@H](Cc3ccc(C(F)(F)F)cc3)C(=O)N(C)CC(=O)N[C@@H](CCc3ccc(C(F)(F)F)c(Cl)c3)C(=O)N2C1 [Compound II] (cyclo([Ac5c][NMeI][NMedβ3hAla][NMeL]I[NMeA][Aze][NMePhe(4-CF3)][Sar][hPhe(3-Cl-4-CF3)][Hyp](Et)))
2,10 µg/mL,CC[C@H](C)[C@@H]1NC(=O)[C@H](CC(C)C)N(C)C(=O)C[C@@H](C(=O)N2CCCC2)N(C)C(=O)[C@H]([C@@H](C)CC)N(C)C(=O)C2(CCCC2)NC(=O)[C@@H]2CCCN2C(=O)[C@H](CCc2ccc(C(F)(F)F)c(Cl)c2)NC(=O)CN(C)C(=O)[C@H](Cc2ccc(C)cc2)N(C)C(=O)[C@@H]2CCN2C(=O)[C@H](C)N(C)C1=O [Compound III] ([NMeL]I[NMeA][Aze][NMePhe(4-Me)][Sar][hPhe(3-Cl-4-CF3)]P[Ac5c][NMeI][NMeD]-Pyrrolidide; lactam N-11)
3,20 µg/mL,CC[C@H](C)[C@@H]1NC(=O)[C@H](CC(C)C)N(C)C(=O)C[C@@H](C(=O)N(C)C)N(C)C(=O)[C@H]([C@@H](C)CC)N(C)C(=O)C2(CCCC2)NC(=O)[C@@H]2CCCN2C(=O)[C@H](CCc2ccc(C(F)(F)F)c(Cl)c2)NC(=O)CN(C)C(=O)[C@H](Cc2ccc(C)cc2)N(C)C(=O)[C@@H]2CCN2C(=O)[C@H](C)N(C)C1=O [Compound IV] ([NMeL]I[NMeA][Aze][NMePhe(4-Me)][Sar][hPhe(3-Cl-4-CF3)]P[Ac5c][NMeI][NMeD]-NMe2; lactam N-11)
4,< 1 µg/mL,"CC[C@H](C)[C@@H]1NC(=O)[C@H](C2CCC2)N(C)C(=O)C[C@@H](C(=O)N2CCCC2)N(C)C(=O)[C@H](C2CCCCC2)N(C)C(=O)C2(CCCC2)NC(=O)[C@@H]2CC(F)(F)CN2C(=O)[C@H](CCc2cc(F)c(C(F)(F)F)c(F)c2)NC(=O)CN(C)C(=O)[C@H](CC2CCCCC2)N(C)C(=O)CN(C)C(=O)CN(C)C1=O [Compound V] ([NMeGly(cBu)]I[Sar][Sar][NMeCha][Sar][hPhe(3,5-F2-4-CF3)][Pro(4,4-F2)][Ac5c][NMeChg][NMeD]-Pyrrolidide; lactam N-11)"
5,< 1 µg/mL,"CC[C@H](C)[C@@H]1NC(=O)[C@H](CC(C)C)N(C)C(=O)C[C@@H](C(=O)N(C)C)N(C)C(=O)[C@H](C2CCCC2)N(C)C(=O)C2(CCCC2)NC(=O)[C@@H]2CCCN2C(=O)[C@H](CCc2cc(F)c(C(F)(F)F)c(F)c2)NC(=O)CN(C)C(=O)[C@H](Cc2ccc(C)cc2)N(CC)C(=O)[C@@H]2CCN2C(=O)[C@H](C)N(C)C1=O [Compound I] ([NMeL]I[NMeA][Aze][NEtPhe(4-Me)][Sar][hPhe(3,5-F2-4-CF3)]P[Ac5c][NMeGly(cPent)][NMeD]-NMe2; lactam N-11)"
